Measurements published in patent US11129840B2, “Methods for identifying novel dosing regimens” (Zavante Therapeutics, Inc., priority 2017, dated 2021).
Values after ≈ are worked out from the molar mass of the structure shown.

Key:
CAZ-NS PSA = assay: Reference agar dilution MIC, resistant SENTRY isolates; type: cell-based, Pseudomonas aeruginosa
Protocol: (§1) Utilizing existing interpretative criteria for the marketed oral agent (dosed at 3 g) for analysis purposes, FOS susceptibility (S) was determined for recent resistant GN and GP clinical isolates including vancomycin-resistant Enterococcus faecium (VREM) and E. faecalis (VREF); methicillin-resistant Staphylococcus aureus (MRSA) and MR coagulase negative staphylococci (MR-CoNS), Escherichia coli (EC) and Klebsiella pneumoniae (KPN) containing extended spectrum beta-lactamases (ESBL) or were carbapenem resistant (CR); and), Pseudomonas aeruginosa (PSA) non-susceptible to ceftazidime (CAZ-NS) or to meropenem (MER-NS). […] Isolates were collected from hospitalized patients in the US as a part of the SENTRY surveillance program, 2013-2015.

MER-NS PSA = assay: as above; type: cell-based, Pseudomonas aeruginosa
Protocol: as §1

Veillonella spp. = assay: Reference agar dilution MIC, anaerobes; type: cell-based
Protocol: (§2) FOS was tested against over 1,400 GN and 800 GP clinical isolates collected in US medical centers as part of the SENTRY Antimicrobial Surveillance Program (96% of isolates from 2015) and a selection of 29 GN and 20 GP anaerobes. Isolates were susceptibility (S) tested against FOS and comparators by reference agar dilution (25 μg/mL glucose-6-phosphate supplementation) using existing FDA breakpoints of the oral formulation for comparative assessments.

[1] = tested on: Prevotella and Porphyromonas spp.; assay: Reference agar dilution MIC, anaerobes; type: cell-based
Protocol: as §2

Propionibacterium spp. = assay: Reference agar dilution MIC, anaerobes; type: cell-based
Protocol: as §2

[2] = tested on: Clostridium spp., Finegoldia magna, and Peptostreptococcus spp.; assay: Reference agar dilution MIC, anaerobes; type: cell-based; conditions: small collection
Protocol: as §2

[3] = tested on: ESBL-producing K. pneumoniae isolate; assay: Time-kill kinetic analysis; type: cell-based, Klebsiella pneumoniae; conditions: FOS 1, 2, 4×MIC, 4 h
Protocol: Broth microdilution for FOS (Mueller-Hinton broth supplemented with 25 μg/mL glucose-6-phosphate) and comparators was performed before performing TKK. TKK employed MIC multiples for FOS, and ¼ and 1×MIC of select comparators, and combinations of FOS and comparator. TKK were sampled for colony counts at T0, T2, T4, T8 and T24 hours (h). Two Klebsiella pneumoniae isolates (one KPC and one ESBL), two Pseudomonas aeruginosa isolates (non-MDR), and one Acinetobacter baumannii isolate (MDR) were tested.

[4] = Phase I single dose pharmacokinetics in healthy adult subjects; type: in vivo, human; conditions: for half-life / CL renal / Vd / AUC(0-inf) / Cmax / Tmax: plasma
Protocol: Materials/methods: Phase I, open-label study evaluating IV (ZTI-01) and PO (Monurol®) FOS in healthy adult subjects. […] Blood and urine samples were collected serially before and through 48 hours post-dose and analyzed via LC/MS-MS. Noncompartmental analyses were performed via WinNonlin. Safety was monitored throughout the course of the study.

[5] = tested on: Meropenem-NS PSA (MDR PSA isolates); assay: FOF MIC by ETEST; type: cell-based; conditions: Pseudomonas aeruginosa
Protocol: Meropenem-NS PSA obtained from US hospitals were studied. MICs of all antibiotics except FOF were previously determined by broth microdilution; FOF MIC was determined by ETEST® antibiotic gradient diffusion strip prior to conducting synergy assessments between FOF and aztreonam (ATM), cefepime (FEP), ceftazidime (CAZ), meropenem (MEM), piperacillin/tazobactam (TZP), and tobramycin (TOB). […] Of note, Liofilchem® MIC Test Strip was used for TZP due to commercial availability. Only organisms that were NS to the 2nd drug were assessed for synergy.

ESBL-containing E. coli = assay: Reference agar dilution MIC, ZEUS baseline isolates; type: cell-based; conditions: Escherichia coli; 49 isolates
Protocol: (§3) FOS was tested against 465 GN baseline clinical isolates collected in the cUTI clinical trial. Isolates were susceptibility (S) tested against comparator agents by reference broth microdilution and FOS by reference agar dilution (25 μg/mL glucose-6-phosphate supplementation). Existing FDA FOS breakpoints of ≤64 mg/L for the oral formulation were used for comparative assessments. Screen-positive ESBL Enterobacteriaceae isolates were characterized by whole genome sequencing and analysis for the presence of known β-lactamase genes.

E. coli = assay: as above; type: cell-based; conditions: 329 E. coli
Protocol: as §3

[6] = tested on: ESBL-containing P. mirabilis; assay: as above; type: cell-based; conditions: Proteus mirabilis; 3 isolates
Protocol: as §3

[7] = tested on: K. pneumoniae isolates with carbapenemase genes NDM-1 and OXA-48; assay: as above; type: cell-based; conditions: Klebsiella pneumoniae
Protocol: as §3

[8] = tested on: Enterobacter cloacae complex; assay: as above; type: cell-based
Protocol: as §3

Enterobacteriaceae = assay: as above; type: cell-based
Protocol: as §3

Klebsiella pneumoniae = assay: as above; type: cell-based
Protocol: as §3

Pseudomonas aeruginosa = assay: as above; type: cell-based
Protocol: as §3

Proteus mirabilis = assay: as above; type: cell-based; conditions: 20 isolates
Protocol: as §3

[9] = tested on: ESBL-containing K. pneumoniae; assay: as above; type: cell-based; conditions: Klebsiella pneumoniae
Protocol: as §3

[10] = human, in vivo, 3 g PO (Monurol), mean ± SD
[11] = human, 1 g IV (ZTI-01), mean ± SD
[12] = human, 3 g PO (Monurol), mean ± SD
[13] = human, 8 g IV (ZTI-01), mean ± SD

`C[C@@H]1O[C@@H]1P(=O)(O)O` [FOS, fosfomycin] showed an MIC (CAZ-NS PSA; Pseudomonas aeruginosa) of over 256 µg/mL, an MIC90 (CAZ-NS PSA; Pseudomonas aeruginosa) of 128 µg/mL (≈ 927 µM) and an MIC50 (CAZ-NS PSA; Pseudomonas aeruginosa, 38 CAZ-NS PSA) of 64 µg/mL (≈ 464 µM). For the same compound, the “No. of isolates with FOS MIC≤64 μg/mL” value (CAZ-NS PSA; of 38 CAZ-NS PSA) was 32, the MIC (MER-NS PSA; Pseudomonas aeruginosa) was over 256 µg/mL and the MIC90 (MER-NS PSA; Pseudomonas aeruginosa) was 128 µg/mL (≈ 927 µM). The MIC50 (MER-NS PSA; Pseudomonas aeruginosa, 42 MER-NS PSA) was 64 µg/mL (≈ 464 µM), the “No. of isolates with FOS MIC≤64 μg/mL” value (MER-NS PSA; of 42 MER-NS PSA) was 34 and the MIC range (Veillonella spp.) was at most 0.03 to 0.06 µg/mL. It also gave an MIC [1] of over 256 µg/mL, an MIC (Propionibacterium spp.) of over 256 µg/mL and an MIC range [2] of 0.5 to 32 µg/mL. The “decrease in CFU” value [3] was 1.4-2.2 log10 CFU, the “fraction of the dose excreted in urine after 48 hours” value (from here on “fraction of the dose excreted”) ([4]; 1 g IV) was 74% and the CLT ([4]; 1 g IV (ZTI-01), mean ± SD) was 8.7 ± 1.7 L/h. For the same compound, the “fraction of the dose excreted” value ([4]; 3 g PO) was 37%, the CLT/F ([4]; 3 g PO (Monurol), mean ± SD) was 17.0 ± 4.7 L/h and the “fraction of the dose excreted” value ([4]; 8 g IV) was 80%. The CLT ([4]; 8 g IV (ZTI-01), mean ± SD) was 7.8 ± 1.4 L/h, the “dose dependence of plasma PK” value ([4]; between the 1 g and 8 g IV doses) was “approximately linear and proportional” and the half-life ([4]; human, in vivo, 1 g IV (ZTI-01), mean ± SD) was 2.4 ± 0.4 h. The Vd/F [4, 10] was 204 ± 70.7 L, the half-life [4, 10] was 9.04 ± 4.5 h and the half-life ([4]; human, in vivo, 8 g IV (ZTI-01), mean ± SD) was 2.8 ± 0.6 h. For the same compound, the CL renal [4, 11] was 110 mL/min, the Vd [4, 11] was 29.7 ± 5.7 L and the CL renal [4, 12] was 108 mL/min. For the same compound, the CL renal [4, 13] was 105 mL/min, the Vd [4, 13] was 31.5 ± 10.4 L and the AUC(0-inf) [4, 11] was 120 ± 28.5 µg·h/mL. The Cmax [4, 11] was 44300 ± 7600 ng/mL, the Tmax [4, 11] was 1.1 ± 0.05 h and the AUC(0-inf) [4, 12] was 191 ± 57.6 µg·h/mL. For the same compound, the Cmax [4, 12] was 26800 ± 6400 ng/mL, the Tmax [4, 12] was 2.25 ± 0.4 h and the AUC(0-inf) [4, 13] was 1060 ± 192 µg·h/mL. For the same compound, the Cmax [4, 13] was 370000 ± 61900 ng/mL, the Tmax [4, 13] was 1.08 ± 0.01 h and the MIC90 [5] was over 1020 µg/mL. For the same compound, the MIC50 ([5]; 87 isolates, ETEST) was 64 µg/mL, the MIC50 (ESBL-containing E. coli) was 1 µg/mL (≈ 7.24 µM) and the MIC90 (ESBL-containing E. coli) was 2 µg/mL (≈ 14.5 µM). The “% S to FOS” value (E. coli) was 100.0%, the MIC50 [6] was 2 µg/mL (≈ 14.5 µM) and the MIC ([7]; NDM-1 isolate) was 8 µg/mL (≈ 57.9 µM). It also gave an MIC ([7]; OXA-48 isolate) of 64 µg/mL (≈ 464 µM), an MIC90 [8] of 128 µg/mL (≈ 927 µM) and an MIC50 ([8]; 14 isolates) of 16 µg/mL (≈ 116 µM). For the same compound, the “% of isolates ≤64 mg/L” value (Enterobacteriaceae) was 96.4%, the MIC50 (Enterobacteriaceae) was 1 µg/mL (≈ 7.24 µM) and the MIC90 (Enterobacteriaceae) was 16 µg/mL (≈ 116 µM). The “% of isolates <64 mg/L” value (Klebsiella pneumoniae; 62 isolates) was 87.1%, the MIC90 (Klebsiella pneumoniae; Klebsiella pneumoniae) was 128 µg/mL (≈ 927 µM) and the MIC50 (Klebsiella pneumoniae; Klebsiella pneumoniae, 62 isolates) was 16 µg/mL (≈ 116 µM). The MIC90 (Pseudomonas aeruginosa) was 256 µg/mL (≈ 1850 µM), the MIC50 (Pseudomonas aeruginosa; 21 isolates) was 64 µg/mL (≈ 464 µM) and the MIC50 (Proteus mirabilis) was 2 µg/mL (≈ 14.5 µM). For the same compound, the MIC90 (Proteus mirabilis) was 32 µg/mL (≈ 232 µM), the MIC90 [9] was 128 µg/mL (≈ 927 µM) and the MIC50 ([9]; 28 isolates) was 16 µg/mL (≈ 116 µM).
